Test results taken from patent US20230085307A1, “PYRIDAZINONE COMPOUND AND HERBICIDE” (NISSAN CHEMICAL CORPORATION, priority 2019, published 2023).

The molecules below were run on late watergrass (assay: Test Example 1: herbicidal activity, application before weed generation under submerged conditions (Table 16, symbol A)). Conditions: amount of applied herbicide 320 g/ha.
Format: in vivo, late watergrass (Echinochloa oryzicola)
Method in brief: (§1)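 Submerged Wagner pots (alluvial soil, 4 cm water) sown with weed seeds and planted with 2.5-leaf rice seedlings; emulsifiable concentrate diluted in water applied to water surface on sowing day. Held in greenhouse at 25-30 °C; injury scored 0-5 by herbicidal rate after three weeks.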
With `CCCC(=O)Oc1c(C)nn(C)c(=O)c1-c1c(-c2ccccc2OC)sc2cc(F)c(F)cc12` [5-012] the “Herbicidal effect, A: late watergrass” value was 4 (Herbicidal rate of 70% or more and less than 90%). With `COc1ccc(-c2sc3cc(Cl)c(Cl)cc3c2-c2c(O)c(C)nn(C)c2=O)cc1` [5-043] the “Herbicidal effect, A: late watergrass” value was 5 (Herbicidal rate of 90% or more (almost completely withered)).

These molecules were tested on Japanese bulrush (assay: Test Example 1: herbicidal activity, application before weed generation under submerged conditions (Table 16, symbol B)). Conditions: amount of applied herbicide 320 g/ha.
Format: in vivo, Japanese bulrush (Schoenoplectus juncoides)
Method in brief: as §1
In the case of `CCCC(=O)Oc1c(C)nn(C)c(=O)c1-c1c(-c2ccccc2OC)sc2cc(F)c(F)cc12` [5-012], the “Herbicidal effect, B: Japanese bulrush” value was 3 (Herbicidal rate of 40% or more and less than 70%). `COc1ccc(-c2sc3cc(Cl)c(Cl)cc3c2-c2c(O)c(C)nn(C)c2=O)cc1` [5-043] was tested, and the “Herbicidal effect, B: Japanese bulrush” value was 2 (Herbicidal rate of 20% or more and less than 40%).

Each molecule was assayed on oval-leafed pondweed (assay: Test Example 1: herbicidal activity, application before weed generation under submerged conditions (Table 16, symbol C)). Conditions: amount of applied herbicide 320 g/ha.
Format: in vivo, oval-leafed pondweed (Monochoria vaginalis)
Method in brief: as §1
With `CCCC(=O)Oc1c(C)nn(C)c(=O)c1-c1c(-c2ccccc2OC)sc2cc(F)c(F)cc12` [5-012] the “Herbicidal effect, C: oval-leafed pondweed” value was 2 (Herbicidal rate of 20% or more and less than 40%). For `COc1ccc(-c2sc3cc(Cl)c(Cl)cc3c2-c2c(O)c(C)nn(C)c2=O)cc1` [5-043], the “Herbicidal effect, C: oval-leafed pondweed” value was 0 (Herbicidal rate of 5% or less (almost no effect)).

The molecules below were run on late watergrass (assay: Test Example 2: herbicidal activity, application during weed generation under submerged conditions (Table 17, symbol A)). Conditions: AAH 320 g/ha; application during weed generation, submerged conditions.
Format: in vivo, late watergrass (Echinochloa oryzicola)
Method in brief: (§2)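 Wagner pot, alluvial soil, 4 cm flood; mixed sowing of all species; greenhouse 25° C.–30° C. Emulsifiable formulation, water-diluted to predetermined dose, applied to paddy water at 1–2 leaf stage. Effect rated at 3 wk using the earlier test's scoring criteria.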
With `CCCC(=O)Oc1c(C)nn(C)c(=O)c1-c1c(-c2ccccc2OC)sc2cc(F)c(F)cc12` [5-012] the “herbicidal effect rating, A: late watergrass” value was 0 (Herbicidal rate of 5% or less (almost no effect)). With `COc1ccc(-c2sc3cc(Cl)c(Cl)cc3c2-c2c(O)c(C)nn(C)c2=O)cc1` [5-043] the “herbicidal effect rating, A: late watergrass” value was 2 (Herbicidal rate of 20% or more and less than 40%).

The molecules below were run on oval-leafed pondweed (assay: Test Example 2: herbicidal activity, application during weed generation under submerged conditions (Table 17, symbol C)). Conditions: AAH 320 g/ha; application during weed generation, submerged conditions.
Format: in vivo, oval-leafed pondweed (Monochoria vaginalis)
Method in brief: as §2
`CCCC(=O)Oc1c(C)nn(C)c(=O)c1-c1c(-c2ccccc2OC)sc2cc(F)c(F)cc12` [5-012] was tested, and the “herbicidal effect rating, C: oval-leafed pondweed” value was 2 (Herbicidal rate of 20% or more and less than 40%). For `COc1ccc(-c2sc3cc(Cl)c(Cl)cc3c2-c2c(O)c(C)nn(C)c2=O)cc1` [5-043], the “herbicidal effect rating, C: oval-leafed pondweed” value was 0 (Herbicidal rate of 5% or less (almost no effect)).

These molecules were tested on barnyard grass (assay: Test Example 3: herbicidal effect by foliage application, Wagner pot (Table 18, symbol H)). Conditions: 320 g/ha.
Format: in vivo, barnyard grass (Echinochloa crus-galli)
Method in brief: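 Plants were sown in alluvial soil held under 0.1–0.5 cm standing water and grown 14 days in a greenhouse at 25–30 °C. An emulsifiable formulation, water-diluted to the set dose, was then sprayed onto the foliage, and effects were scored three weeks later using previously defined criteria.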
In the case of `CCCC(=O)Oc1c(C)nn(C)c(=O)c1-c1c(-c2ccccc2OC)sc2cc(F)c(F)cc12` [5-012], the “herbicidal effect on barnyard grass (H)” value was 4 (Herbicidal rate of 70% or more and less than 90%). `COc1ccc(-c2sc3cc(Cl)c(Cl)cc3c2-c2c(O)c(C)nn(C)c2=O)cc1` [5-043] was tested, and the “herbicidal effect on barnyard grass (H)” value was 3 (Herbicidal rate of 40% or more and less than 70%).

What follows are molecules tested on southern crabgrass (assay: Test Example 4: herbicidal effect by soil treatment (Table 19, symbol F)). Conditions: amount of applied herbicide 320 g/ha.
Format: in vivo, southern crabgrass (Digitaria ciliaris)
Method in brief: (§3)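 Pre-emergence style soil spray: seeds under ~1.5 cm sterilized diluvial soil received a uniform coat of emulsion diluted to the predetermined herbicide amount. Greenhouse 25–30° C; readout at week three on previously defined criteria.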
In the case of `CCCC(=O)Oc1c(C)nn(C)c(=O)c1-c1c(-c2ccccc2OC)sc2cc(F)c(F)cc12` [5-012], the “F: southern crabgrass, herbicidal effect grade” value was 3 (Herbicidal rate of 40% or more and less than 70%). In the case of `COc1ccc(-c2sc3cc(Cl)c(Cl)cc3c2-c2c(O)c(C)nn(C)c2=O)cc1` [5-043], the “F: southern crabgrass, herbicidal effect grade” value was 0 (Herbicidal rate of 5% or less (almost no effect)).

The molecules below were run on wild oat (assay: Test Example 4: herbicidal effect by soil treatment (Table 19, symbol I)). Conditions: amount of applied herbicide 320 g/ha.
Format: in vivo, wild oat (Avena fatua)
Method in brief: as §3
In the case of `CCCC(=O)Oc1c(C)nn(C)c(=O)c1-c1c(-c2ccccc2OC)sc2cc(F)c(F)cc12` [5-012], the “I: wild oat, herbicidal effect grade” value was 3 (Herbicidal rate of 40% or more and less than 70%). For `COc1ccc(-c2sc3cc(Cl)c(Cl)cc3c2-c2c(O)c(C)nn(C)c2=O)cc1` [5-043], the “I: wild oat, herbicidal effect grade” value was 0 (Herbicidal rate of 5% or less (almost no effect)).

Each molecule was assayed on windgrass (assay: Test Example 4: herbicidal effect by soil treatment (Table 19, symbol L)). Conditions: amount of applied herbicide 320 g/ha.
Format: in vivo, windgrass (Apera spica-venti)
Method in brief: as §3
In the case of `CCCC(=O)Oc1c(C)nn(C)c(=O)c1-c1c(-c2ccccc2OC)sc2cc(F)c(F)cc12` [5-012], the “L: windgrass, herbicidal effect grade” value was 3 (Herbicidal rate of 40% or more and less than 70%). With `COc1ccc(-c2sc3cc(Cl)c(Cl)cc3c2-c2c(O)c(C)nn(C)c2=O)cc1` [5-043] the “L: windgrass, herbicidal effect grade” value was 0 (Herbicidal rate of 5% or less (almost no effect)).

What follows are molecules tested on velvetleaf (assay: Test Example 4: herbicidal effect by soil treatment (Table 19, symbol M)). Conditions: amount of applied herbicide 320 g/ha.
Format: in vivo, velvetleaf (Abutilon theophrasti)
Method in brief: as §3
For `CCCC(=O)Oc1c(C)nn(C)c(=O)c1-c1c(-c2ccccc2OC)sc2cc(F)c(F)cc12` [5-012], the “M: velvetleaf, herbicidal effect grade” value was 3 (Herbicidal rate of 40% or more and less than 70%). With `COc1ccc(-c2sc3cc(Cl)c(Cl)cc3c2-c2c(O)c(C)nn(C)c2=O)cc1` [5-043] the “M: velvetleaf, herbicidal effect grade” value was 0 (Herbicidal rate of 5% or less (almost no effect)).

The molecules below were run on redroot pigweed (assay: Test Example 4: herbicidal effect by soil treatment (Table 19, symbol N)). Conditions: amount of applied herbicide 320 g/ha.
Format: in vivo, redroot pigweed (Amaranthus retroflexus)
Method in brief: as §3
For `CCCC(=O)Oc1c(C)nn(C)c(=O)c1-c1c(-c2ccccc2OC)sc2cc(F)c(F)cc12` [5-012], the “N: redroot pigweed, herbicidal effect grade” value was 5 (Herbicidal rate of 90% or more (almost completely withered)). In the case of `COc1ccc(-c2sc3cc(Cl)c(Cl)cc3c2-c2c(O)c(C)nn(C)c2=O)cc1` [5-043], the “N: redroot pigweed, herbicidal effect grade” value was 0 (Herbicidal rate of 5% or less (almost no effect)).

These molecules were tested on chickweed (assay: Test Example 4: herbicidal effect by soil treatment (Table 19, symbol P)). Conditions: amount of applied herbicide 320 g/ha.
Format: in vivo, common chickweed (Stellaria media)
Method in brief: as §3
`CCCC(=O)Oc1c(C)nn(C)c(=O)c1-c1c(-c2ccccc2OC)sc2cc(F)c(F)cc12` [5-012] was tested, and the “P: chickweed, herbicidal effect grade” value was 3 (Herbicidal rate of 40% or more and less than 70%). In the case of `COc1ccc(-c2sc3cc(Cl)c(Cl)cc3c2-c2c(O)c(C)nn(C)c2=O)cc1` [5-043], the “P: chickweed, herbicidal effect grade” value was 3 (Herbicidal rate of 40% or more and less than 70%).

The molecules below were run on persian speedwell (assay: Test Example 4: herbicidal effect by soil treatment (Table 19, symbol R)). Conditions: amount of applied herbicide 320 g/ha.
Format: in vivo, Persian speedwell (Veronica persica)
Method in brief: as §3
With `CCCC(=O)Oc1c(C)nn(C)c(=O)c1-c1c(-c2ccccc2OC)sc2cc(F)c(F)cc12` [5-012] the “R: persian speedwell, herbicidal effect grade” value was 3 (Herbicidal rate of 40% or more and less than 70%). For `COc1ccc(-c2sc3cc(Cl)c(Cl)cc3c2-c2c(O)c(C)nn(C)c2=O)cc1` [5-043], the “R: persian speedwell, herbicidal effect grade” value was 0 (Herbicidal rate of 5% or less (almost no effect)).

What follows are molecules tested on southern crabgrass (assay: Test Example 5: herbicidal effect by foliage application, plastic box (Table 20, symbol F)). Conditions: amount of applied herbicide 320 g/ha; foliage application after 14-day growth; evaluated three weeks after application.
Format: in vivo, southern crabgrass (Digitaria ciliaris)
Method in brief: (§4)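 Plants were sown into sterilized diluvial soil under about 1.5 cm cover and kept in a greenhouse at 25° C. to 30° C. Fourteen days on, foliage received an even spray of the diluted emulsion. Herbicidal or crop effect was judged three weeks afterwards.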
For `CCCC(=O)Oc1c(C)nn(C)c(=O)c1-c1c(-c2ccccc2OC)sc2cc(F)c(F)cc12` [5-012], the “Herbicidal effect by foliage application, F: southern crabgrass” value was 0 (Herbicidal rate of 5% or less (almost no effect)). `COc1ccc(-c2sc3cc(Cl)c(Cl)cc3c2-c2c(O)c(C)nn(C)c2=O)cc1` [5-043] was tested, and the “Herbicidal effect by foliage application, F: southern crabgrass” value was 0 (Herbicidal rate of 5% or less (almost no effect)).

Each molecule was assayed on green foxtail (assay: Test Example 5: herbicidal effect by foliage application, plastic box (Table 20, symbol G)). Conditions: amount of applied herbicide 320 g/ha; foliage application after 14-day growth; evaluated three weeks after application.
Format: in vivo, green foxtail (Setaria viridis)
Method in brief: as §4
In the case of `CCCC(=O)Oc1c(C)nn(C)c(=O)c1-c1c(-c2ccccc2OC)sc2cc(F)c(F)cc12` [5-012], the “Herbicidal effect by foliage application, G: green foxtail” value was 1 (Herbicidal rate of 5% or more and less than 20%). In the case of `COc1ccc(-c2sc3cc(Cl)c(Cl)cc3c2-c2c(O)c(C)nn(C)c2=O)cc1` [5-043], the “Herbicidal effect by foliage application, G: green foxtail” value was 0 (Herbicidal rate of 5% or less (almost no effect)).

The molecules below were run on redroot pigweed (assay: Test Example 5: herbicidal effect by foliage application, plastic box (Table 20, symbol N)). Conditions: amount of applied herbicide 320 g/ha; foliage application after 14-day growth; evaluated three weeks after application.
Format: in vivo, redroot pigweed (Amaranthus retroflexus)
Method in brief: as §4
For `CCCC(=O)Oc1c(C)nn(C)c(=O)c1-c1c(-c2ccccc2OC)sc2cc(F)c(F)cc12` [5-012], the “Herbicidal effect by foliage application, N: redroot pigweed” value was 4 (Herbicidal rate of 70% or more and less than 90%). With `COc1ccc(-c2sc3cc(Cl)c(Cl)cc3c2-c2c(O)c(C)nn(C)c2=O)cc1` [5-043] the “Herbicidal effect by foliage application, N: redroot pigweed” value was 3 (Herbicidal rate of 40% or more and less than 70%).
